Laboratory results from article PMC4937797 (Antiviral research, 2016).
pEC50: −log10 of the molar value. ≈ marks a conversion by molar mass, not a printed value. Entries after “also recorded” stand apart in the source; their conditions may differ. Like-named read-outs stand apart in the source and are kept apart here.

Experiments:
[1] = LogD; type: physicochemical
[2] = Plasma protein binding; type: in vitro ADME
[3] = Aqueous solubility; type: physicochemical
[4] = system: RSV B Washington; type: cell-based, Respiratory syncytial virus; conditions: read-out: RSV B EC50, Hep2 cells, CPE assay
[5] = system: subgenomic RSV replicon; type: cell-based, Respiratory syncytial virus; conditions: for pEC50: read-out: Replicon EC50, APC126-E RSV replicon cells, 48 hours, luminescence; for activity in the primary screen (RSV replicon), in words: 10 μM, HTS data
[6] = system: RSV A Long; type: cell-based, Respiratory syncytial virus; conditions: read-out: RSV Long EC50; Hep2 cells, CPE assay
[7] = system: RSV N mutant (nucleoprotein mutations); type: cell-based, Respiratory syncytial virus; conditions: for pEC50: read-out: N Mutant EC50, CPE assay, RSV604-resistant N mutant virus
[8] = system: RSV L mutant (Y1631H in L polymerase); type: cell-based, Respiratory syncytial virus; conditions: for pEC50: read-out: L Mutant EC50
[9] = target: hERG channel (Homo sapiens, UniProt Q12809); test: hERG channel inhibition; type: biochemical
Chain of hERG channel (Q12809 whole entry): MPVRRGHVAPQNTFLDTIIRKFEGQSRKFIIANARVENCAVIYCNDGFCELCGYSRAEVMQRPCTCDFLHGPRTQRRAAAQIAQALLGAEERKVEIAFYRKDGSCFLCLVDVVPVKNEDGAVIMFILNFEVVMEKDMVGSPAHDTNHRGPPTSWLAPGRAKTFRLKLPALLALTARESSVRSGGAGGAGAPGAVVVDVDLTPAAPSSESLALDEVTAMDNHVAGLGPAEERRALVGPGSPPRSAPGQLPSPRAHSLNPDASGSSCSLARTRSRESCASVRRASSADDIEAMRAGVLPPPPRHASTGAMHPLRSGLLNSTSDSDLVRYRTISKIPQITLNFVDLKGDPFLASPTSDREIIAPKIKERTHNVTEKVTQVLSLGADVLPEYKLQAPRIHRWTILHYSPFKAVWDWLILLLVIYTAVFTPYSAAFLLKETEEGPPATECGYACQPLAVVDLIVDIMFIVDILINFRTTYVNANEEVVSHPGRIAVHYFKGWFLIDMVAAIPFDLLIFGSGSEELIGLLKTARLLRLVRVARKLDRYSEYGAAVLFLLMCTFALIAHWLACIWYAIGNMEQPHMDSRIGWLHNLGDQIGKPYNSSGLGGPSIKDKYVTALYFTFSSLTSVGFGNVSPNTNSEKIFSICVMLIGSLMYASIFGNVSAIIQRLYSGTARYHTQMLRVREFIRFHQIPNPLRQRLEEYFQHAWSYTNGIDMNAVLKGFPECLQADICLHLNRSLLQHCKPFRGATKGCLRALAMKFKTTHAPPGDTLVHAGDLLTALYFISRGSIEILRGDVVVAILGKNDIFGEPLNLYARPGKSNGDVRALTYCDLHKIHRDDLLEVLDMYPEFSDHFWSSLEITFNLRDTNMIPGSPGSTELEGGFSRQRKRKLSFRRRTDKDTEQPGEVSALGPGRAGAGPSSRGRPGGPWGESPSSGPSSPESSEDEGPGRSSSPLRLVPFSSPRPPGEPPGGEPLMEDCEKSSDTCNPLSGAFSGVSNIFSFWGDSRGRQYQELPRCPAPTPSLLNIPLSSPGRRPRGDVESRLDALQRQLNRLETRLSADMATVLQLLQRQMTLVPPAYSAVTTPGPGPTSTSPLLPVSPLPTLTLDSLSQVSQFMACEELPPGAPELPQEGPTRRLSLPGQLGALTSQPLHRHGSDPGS

[10] = target: RSV polymerase (L/P complex) (Human respiratory syncytial virus A, UniProt P28887); test: In vitro RNA synthesis assay with purified L/P complex; type: biochemical
Chain of RSV polymerase (L/P complex) (P03421 whole entry): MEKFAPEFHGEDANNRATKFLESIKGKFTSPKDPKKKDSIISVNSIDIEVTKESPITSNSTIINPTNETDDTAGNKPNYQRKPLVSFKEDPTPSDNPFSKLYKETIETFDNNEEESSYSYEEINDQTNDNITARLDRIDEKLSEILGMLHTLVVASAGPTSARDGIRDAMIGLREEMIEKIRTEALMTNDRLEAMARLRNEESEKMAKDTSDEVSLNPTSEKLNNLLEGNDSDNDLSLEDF
Chain of RSV polymerase (L/P complex) (P28887 whole entry): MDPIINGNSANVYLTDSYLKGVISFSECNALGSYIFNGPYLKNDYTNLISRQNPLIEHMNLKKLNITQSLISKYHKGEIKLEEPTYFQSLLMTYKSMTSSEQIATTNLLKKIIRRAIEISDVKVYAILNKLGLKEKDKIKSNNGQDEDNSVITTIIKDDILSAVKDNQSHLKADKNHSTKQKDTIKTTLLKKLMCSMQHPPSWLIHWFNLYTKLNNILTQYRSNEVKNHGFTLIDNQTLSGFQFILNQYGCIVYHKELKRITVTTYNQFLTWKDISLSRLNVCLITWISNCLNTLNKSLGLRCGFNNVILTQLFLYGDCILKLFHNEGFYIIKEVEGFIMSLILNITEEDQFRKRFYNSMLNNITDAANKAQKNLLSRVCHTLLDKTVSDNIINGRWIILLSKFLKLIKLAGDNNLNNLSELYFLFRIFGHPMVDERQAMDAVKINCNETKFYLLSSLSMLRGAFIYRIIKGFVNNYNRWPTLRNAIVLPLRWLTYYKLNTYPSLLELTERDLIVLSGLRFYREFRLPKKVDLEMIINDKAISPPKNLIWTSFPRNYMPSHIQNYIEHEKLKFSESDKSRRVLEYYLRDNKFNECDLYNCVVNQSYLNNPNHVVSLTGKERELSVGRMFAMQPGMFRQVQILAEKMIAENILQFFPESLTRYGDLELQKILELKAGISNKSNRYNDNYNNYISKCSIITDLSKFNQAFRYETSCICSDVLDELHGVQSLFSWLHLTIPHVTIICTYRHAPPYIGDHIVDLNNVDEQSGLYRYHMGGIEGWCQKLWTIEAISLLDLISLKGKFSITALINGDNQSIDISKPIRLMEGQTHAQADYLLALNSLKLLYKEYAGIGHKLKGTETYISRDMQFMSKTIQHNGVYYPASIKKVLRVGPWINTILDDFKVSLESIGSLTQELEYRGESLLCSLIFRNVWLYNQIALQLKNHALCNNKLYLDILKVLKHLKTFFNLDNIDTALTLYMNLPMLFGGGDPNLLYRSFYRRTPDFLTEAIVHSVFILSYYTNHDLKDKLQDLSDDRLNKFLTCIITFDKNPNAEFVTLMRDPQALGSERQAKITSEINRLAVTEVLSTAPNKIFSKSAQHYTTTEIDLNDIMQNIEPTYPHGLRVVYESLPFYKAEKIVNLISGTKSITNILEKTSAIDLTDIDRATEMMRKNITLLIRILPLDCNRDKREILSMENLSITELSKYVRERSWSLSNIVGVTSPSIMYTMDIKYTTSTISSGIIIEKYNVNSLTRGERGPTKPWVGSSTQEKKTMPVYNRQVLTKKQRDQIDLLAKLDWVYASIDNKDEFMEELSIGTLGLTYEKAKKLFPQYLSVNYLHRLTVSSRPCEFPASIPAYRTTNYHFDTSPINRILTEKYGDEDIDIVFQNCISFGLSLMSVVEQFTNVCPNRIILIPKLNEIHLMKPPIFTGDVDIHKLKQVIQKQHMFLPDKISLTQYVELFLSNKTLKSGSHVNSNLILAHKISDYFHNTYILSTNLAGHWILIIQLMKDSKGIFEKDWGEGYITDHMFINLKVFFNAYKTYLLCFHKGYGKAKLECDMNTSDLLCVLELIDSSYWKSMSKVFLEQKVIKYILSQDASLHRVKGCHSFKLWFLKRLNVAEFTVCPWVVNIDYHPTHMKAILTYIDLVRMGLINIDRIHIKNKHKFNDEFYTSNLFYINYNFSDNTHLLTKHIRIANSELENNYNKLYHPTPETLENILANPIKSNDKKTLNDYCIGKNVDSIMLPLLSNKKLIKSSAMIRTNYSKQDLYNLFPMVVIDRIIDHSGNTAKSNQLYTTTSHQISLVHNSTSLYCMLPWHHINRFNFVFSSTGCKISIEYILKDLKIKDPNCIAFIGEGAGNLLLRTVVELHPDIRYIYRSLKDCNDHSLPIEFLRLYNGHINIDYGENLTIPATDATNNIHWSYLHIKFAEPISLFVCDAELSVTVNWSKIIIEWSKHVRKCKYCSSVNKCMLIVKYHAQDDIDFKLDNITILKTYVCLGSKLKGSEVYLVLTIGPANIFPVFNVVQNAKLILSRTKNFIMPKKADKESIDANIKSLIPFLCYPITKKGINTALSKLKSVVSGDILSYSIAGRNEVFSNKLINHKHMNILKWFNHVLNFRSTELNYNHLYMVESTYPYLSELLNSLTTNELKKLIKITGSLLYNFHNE

[11] = Microsomal stability; type: in vitro ADME; conditions: human liver microsomes
[12] = system: T7 RNA polymerase
[13] = Hepatic clearance; type: in vitro ADME
[14] = system: subgenomic RSV replicon; conditions: read-out: Replicon EC50; assay validation; ref Tiong-Yip et al (2014); cited from earlier work

SMILES	LogD [1]	PPB (% free) [2]	Solubility [3]	pEC50 [4]	pEC50 [5]	pEC50 [6]	pEC50 [7]	shift in activity against the L-mutant strain [8]	pEC50 [8]	HLM [11]	Rhep [13]	other results
COc1cc(CN2CC3(CCN(S(=O)(=O)c4cn(C)cn4)CC3)c3c(n(C)c4cc(OC)ccc34)[C@H]2CO)cc(OC)c1 [BRD3482]	2.9	3.8 % free	22 µM (≈ 13.4 µg/mL)	5.33	5.14	6.00	–	–	–	–	–	–
Cc1cccc(-c2ccc([C@@H]3[C@@H](CO)N4CCCCN(S(=O)(=O)c5cn(C)cn5)C[C@@H]34)cc2)c1 [BRD3969]	3.6	1.6 % free	49 µM (≈ 23.6 µg/mL)	< 4.30	5.38	5.41	5.16	greater than 6 fold	< 4.60	77.9 µL/min/mg	61.7 μL/min/10^6 cells	N Mutant fold shift [7]: 6.9 μM (1.8x); L Mutant fold shift [8]: > 25 μM (>6x); hERG (% inh at 11 μM) [9]: 14%; effect on RSV RNA synthesis initiation or elongation in vitro ([10]; 1000 μM, data not shown): no effect; effect on in vitro RNA synthesis (de novo synthesis, back-priming) ([10]; concentrations up to 100 μM, 30 °C, 2 h): does not inhibit the ability of the polymerase to synthesize RNA; also recorded: no discernible effect; activity in the primary screen (RSV replicon), in words [5]: weak but significant activity; effect on T7 RNA polymerase (input minigenome template) [12]: inhibited T7 RNA polymerase
CN1c2ccc(-c3ccc(C#N)cc3)cc2[C@H]2[C@H](CCN2C(=O)c2cccc(F)c2)[C@@H]1CO [BRD4517]	–	–	–	5.26	4.97	5.80	–	–	–	–	–	–
COc1ccc2c3c([nH]c2c1)[C@H](CO)N(Cc1ccccc1)CC31CCN(C(=O)Cc2ccccc2)CC1 [BRD5449]	>4.4	<1 % free	16 µM (≈ 8.15 µg/mL)	< 4.30	5.31	5.17	–	–	–	465 µL/min/mg	194 μL/min/10^6 cells	–
O=S(=O)(c1cccs1)N1CCCCN2[C@H](CO)[C@@H](c3ccc(/C=C/c4ccccc4)cc3)[C@@H]2C1 [BRD9101]	>4.8	<1 % free	<1 µM	< 4.30	5.37	5.77	5.11	greater than 15 fold	< 4.60	57.1 µL/min/mg	67.8 μL/min/10^6 cells	N Mutant fold shift ([7]; shift versus RSV A2 EC50): 4.6 x; % inhibition of the RSV replicon in the primary screen ([5]; 10 uM, single concentration HTS): 70%
Cn1cnc(S(=O)(=O)N2CCCCN3[C@H](CO)[C@@H](c4ccc(-c5ccc(F)cc5)cc4)[C@@H]3C2)c1 [BRD65768]	3.3	2.1 % free	121 µM (≈ 58.6 µg/mL)	< 4.30	5.37	5.12	4.88	> 3 fold	< 4.60	41.2 µL/min/mg	23.6 μL/min/10^6 cells	N Mutant fold shift ([7]; shift versus RSV A2 EC50): 2 x; L Mutant fold shift ([8]; shift versus RSV A2 EC50): > 4 x; hERG (% inh at 11 μM) [9]: 18%; activity in the primary screen (RSV replicon), in words [5]: weak but significant activity
O=C(NC1CC1)c1cc2c(s1)-c1ccccc1N(C(=O)c1ccc(NC(=O)c3ccccc3-c3ccccc3)cc1)CC2 [YM53403]	–	–	–	–	–	–	–	–	–	–	–	pEC50 [14]: 6.20
NC(=O)c1ncn([C@@H]2O[C@H](CO)[C@@H](O)[C@H]2O)n1 [ribavirin]	–	–	–	–	–	–	–	–	–	–	–	pEC50 [14]: 5.20
